Here are results for 28 molecules from US20260234112A1, “COMPOUNDS, COMPOSITIONS, AND METHODS OF USE THEREOF” (Type6 Therapeutics, Inc., priority 2023, published 2026).

The Kd is the free concentration of one partner at which half of the binding sites on the other are occupied at equilibrium, for simple one-to-one binding.

Some results are limits rather than exact numbers.

This assay concerns the target T1, Cdk2(2-298) (Homo sapiens, UniProt P24941).
T1 construct: Biotinylated N-terminal avi-tagged Cdk2(2-298) or Cdk1(1-297) was immobilized
As to the kind of experiment: Surface Plasmon Resonance (SPR) compound interaction, Biacore 8K. In kind it is binding. To be noted: single-cycle kinetics (SCK, "S"), dissociation 1800 sec, read-out: Activity rating (KD). The method, then:
Compound interaction was profiled using a Biacore 8K instrument (Cytiva). Biotinylated N-terminal avi-tagged Cdk2(2-298) or Cdk1(1-297) was immobilized on a series S sensor Chip SA at a capture level between 2500 RU and 3000 RU (Cdk2) or 7000 RU (Cdk1) in buffer (25 mM HEPES, 150 mM NaCl, 0.05% Tween20, pH 7.5). A compound dilution plate (8 concentrations, 3-fold dilution) in DMSO was prepared (100× assay concentration). From this plate, compound DMSO stock solution was transferred into buffer, yielding a final DMSO concentration of 1% in assay. The remaining buffer was supplemented with 1% DMSO. Compounds were injected in a series of increasing concentrations in multi-cycle kinetics (MCK, “M”) or single-cycle kinetics (SCK, “S”) mode at a flow rate of 30 μl/min for 120 sec and dissociation was profiled for 180 sec (MCK) or 1800 sec (SCK). Data were analysed using Biacore Insight Evaluation Software (Cytiva).
A general note: In SPR one partner is held on a chip, and binding of the other changes the refractive index at the surface.
With `N[C@H]1CC[C@H](Nc2nccc(-c3cnccc3Oc3ccc(NS(=O)(=O)c4ccccc4Br)cc3F)n2)CC1` [Compound 53, N-[4-[[3-[2-[(1r,4r)(4-Aminocyclohexyl)amino]pyrimidin-4-yl]-4-pyridyl]oxy]-3-fluorophenyl] 2-bromobenzenesulfonamide], the Kd was at most 10 nM.
For `Cc1ccccc1S(=O)(=O)Nc1ccc(Oc2ccncc2-c2ccnc(N[C@H]3CC[C@H](N)CC3)n2)c(F)c1` [Compound 54, N-[4-[[3-[2-[(1r,4r)(4-Aminocyclohexyl)amino]pyrimidin-4-yl]-4-pyridyl]oxy]-3-fluorophenyl] 2-methylbenzenesulfonamide], the Kd lay in the range of 11 to 100 nM.
With `Cc1cc(C)c(S(=O)(=O)Nc2ccc(Oc3ccncc3-c3ccnc(N[C@H]4CC[C@H](N)CC4)n3)c(F)c2)c(C)c1` [Compound 55, N-[4-[[3-[2-[(1r,4r)(4-Aminocyclohexyl)amino]pyrimidin-4-yl]-4-pyridyl]oxy]-3-fluorophenyl] 2,4,6-trimethylbenzenesulfonamide], the Kd is 100 to 1000 nM.
Consider `N[C@H]1CC[C@H](Nc2nccc(-c3cnccc3Oc3ccc(NS(=O)(=O)c4cccc5nccnc45)cc3F)n2)CC1` [Compound 56, N-[4-[[3-[2-[(1r,4r)(4-Aminocyclohexyl)amino]pyrimidin-4-yl]-4-pyridyl]oxy]-3-fluorophenyl] quinoxalin-5-ylsulfonamide], for which the Kd was 100 to 1000 nM.
Consider `N[C@H]1CC[C@H](Nc2nccc(-c3cnccc3Oc3ccc(NS(=O)(=O)c4cccc5c4CCCC5)cc3F)n2)CC1` [Compound 57], for which the Kd was in the range of 100 to 1000 nM.
Next, `N[C@H]1CC[C@H](Nc2nccc(-c3cnccc3Oc3ccc(NS(=O)(=O)c4cc(Cl)c(Br)cc4F)cc3F)n2)CC1` [Compound 58, N-[4-[[3-[2-[(1r,4r)(4-Aminocyclohexyl)amino]pyrimidin-4-yl]-4-pyridyl]oxy]-3-fluorophenyl] 4-bromo-5-chloro-2-fluorobenzenesulfonamide]: 11 to 100 nM; `O=S(=O)(Nc1ccc(Oc2ccncc2-c2ccnc(N[C@H]3CCCNC3)n2)c(F)c1)c1ccccc1` [Compound 59, N-[3-Fluoro-4-[[3-[2-[[(3S)-3-piperidyl]amino]pyrimidin-4-yl]-4-pyridyl]oxy]phenyl] benzenesulfonamide]: 11 to 100 nM; `N[C@H]1CC[C@H](Nc2nccc(-c3cnccc3Oc3cc(Cl)c(NS(=O)(=O)C4CC4)cc3F)n2)CC1` [Compound 60, N-[4-[[3-[2-[(1r,4r)(4-Aminocyclohexyl)amino]pyrimidin-4-yl]-4-pyridyl]oxy]-2-chloro-5-fluorophenyl] cyclopropylsulfonamide]: 1000 to 5000 nM.
Take `N[C@H]1CC[C@H](Nc2nccc(-c3cnccc3Oc3ccc(NS(=O)(=O)c4ccccc4)c(Cl)c3)n2)CC1` [Compound 61, N-[4-[[3-[2-[(1r,4r)(4-Aminocyclohexyl)amino]pyrimidin-4-yl]-4-pyridyl]oxy]-2-chiorophenyl] benzenesulfonamide]: the Kd lay in the range of 100 to 1000 nM.
For `N[C@H]1CC[C@H](Nc2nccc(-c3cnccc3Oc3ccc(NS(=O)(=O)c4ccccc4)c(Br)c3)n2)CC1` [Compound 62, N-[4-[[3-[2-[(1r,4r)(4-Aminocyclohexyl)amino]pyrimidin-4-yl]-4-pyridyl]oxy]-2-bromophenyl] benzenesulfonamide], the Kd is 100 to 1000 nM.
As for `N[C@H]1CC[C@H](Nc2nccc(-c3cnccc3Oc3cc(Cl)c(NS(=O)(=O)c4ccccc4)c(Cl)c3)n2)CC1` [Compound 63, N-[4-[[3-[2-[(1r,4r)(4-Aminocyclohexyl)amino]pyrimidin-4-yl]-4-pyridyl]oxy]-2,6-dichlorophenyl] benzenesulfonamide], the Kd was 1000 to 5000 nM.
As to `N[C@H]1CC[C@H](Nc2nccc(-c3cnccc3Oc3ccc(NS(=O)(=O)c4ccccc4F)cc3F)n2)CC1` [Compound 64, N-[4-[[3-[2-[(1r,4r)(4-Aminocyclohexyl)amino]pyrimidin-4-yl]-4-pyridyl]oxy]-3-fluorophenyl] 2-fluorobenzenesulfonamide], the Kd is at most 10 nM.
Next, `N[C@H]1CC[C@H](Nc2nccc(-c3cnccc3Oc3ccc(NS(=O)(=O)c4ccccc4I)cc3F)n2)CC1` [Compound 65, N-[4-[[3-[2-[(1r,4r)(4-Aminocyclohexyl)amino]pyrimidin-4-yl]-4-pyridyl]oxy]-3-fluorophenyl] 2-iodobenzenesulfonamide]: at most 10 nM; `CC(C)(C)c1ccccc1S(=O)(=O)Nc1ccc(Oc2ccncc2-c2ccnc(N[C@H]3CC[C@H](N)CC3)n2)c(F)c1` [Compound 66, N-[4-[[3-[2-[(1r,4r)(4-Aminocyclohexyl)amino]pyrimidin-4-yl]-4-pyridyl]oxy]-3-fluorophenyl] 2-tert-butylbenzenesulfonamide]: 100 to 1000 nM.
On to `N#Cc1ccccc1S(=O)(=O)Nc1ccc(Oc2ccncc2-c2ccnc(N[C@H]3CC[C@H](N)CC3)n2)c(F)c1` [Compound 67, N-[4-[[3-[2-[(1r,4r)(4-Aminocyclohexyl)amino]pyrimidin-4-yl]-4-pyridyl]oxy]-3-fluorophenyl] 2-cyanobenzenesulfonamide], for which the Kd was at most 10 nM.
As for `N[C@H]1CC[C@H](Nc2nccc(-c3cnccc3Oc3ccc(NS(=O)(=O)C4CCCCC4)cc3F)n2)CC1` [Compound 68, N-[4-[[3-[2-[(1r,4r)(4-Aminocyclohexyl)amino]pyrimidin-4-yl]-4-pyridyl]oxy]-3-fluorophenyl] cyclohexylsulfonamide], the Kd is 100 to 1000 nM.
In the case of `N[C@H]1CC[C@H](Nc2nccc(-c3cnccc3Oc3ccc(NS(=O)(=O)c4cccc5ccccc45)cc3F)n2)CC1` [Compound 69, N-[4-[[3-[2-[(1r,4r)(4-Aminocyclohexyl)amino]pyrimidin-4-yl]-4-pyridyl]oxy]-3-fluorophenyl] naphthalene-1-sulfonamide], the Kd was in the range of 11 to 100 nM.
In the case of `O=S(=O)(Nc1ccc(Oc2ccncc2-c2ccnc(N[C@H]3CCCNC3)n2)c(F)c1)c1cccc2ccccc12` [Compound 70, N-[3-Fluoro-4-[[3-[2-[[(3S)-3-piperidyl]amino]pyrimidin-4-yl]-4-pyridyl]oxy]phenyl] naphthalene-1-sulfonamide], the Kd is at most 10 nM.
As for `CCc1ccccc1S(=O)(=O)Nc1ccc(Oc2ccncc2-c2ccnc(N[C@H]3CC[C@H](N)CC3)n2)c(F)c1` [Compound 71, N-[4-[[3-[2-(1r,4r)[(4-Aminocyclohexyl)amino]pyrimidin-4-yl]-4-pyridyl]oxy]-3-fluorophenyl] 2-ethylbenzenesulfonamide], the dissociation constant (Kd) is at most 10 nM.
`N[C@H]1CC[C@H](Nc2nccc(-c3cnccc3Oc3ccc(NS(=O)(=O)c4ccccc4-c4ccccc4)cc3F)n2)CC1` [Compound 72, N-[4-[[3-[2-(1r,4r)[(4-Aminocyclohexyl)amino]pyrimidin-4-yl]-4-pyridyl]oxy]-3-fluorophenyl] 2-phenylbenzenesulfonamide]: the Kd fell in the range of 11 to 100 nM.
On to `C#Cc1ccccc1S(=O)(=O)Nc1ccc(Oc2ccncc2-c2ccnc(N[C@H]3CC[C@H](N)CC3)n2)c(F)c1` [Compound 73, N-[4-[[3-[2-(1r,4r)[(4-Aminocyclohexyl)amino]pyrimidin-4-yl]-4-pyridyl]oxy]-3-fluorophenyl] 2-ethynylbenzenesulfonamide], for which the dissociation constant (Kd) lay in the range of 11 to 100 nM.
As for `N[C@H]1CC[C@H](Nc2nccc(-c3cnccc3Oc3ccc(NS(=O)(=O)C45CC6CC(CC(C6)C4)C5)cc3F)n2)CC1` [Compound 74, N-[4-[[3-[2-(1r,4r)[(4-Aminocyclohexyl)amino]pyrimidin-4-yl]-4-pyridyl]oxy]-3-fluorophenyl] adamant-1-ylsulfonamide], the Kd is over 5000 nM.
As to `N[C@H]1CC[C@H](Nc2nccc(-c3cnccc3Oc3ccc(NS(=O)(=O)C4CC5CCC4C5)cc3F)n2)CC1` (stereo partly drawn) [Compound 75, N-[4-[[3-[2-(1r,4r)[(4-Aminocyclohexyl)amino]pyrimidin-4-yl]-4-pyridyl]oxy]-3-fluorophenyl] [R,S]-exo-norborn-2-ylsulfonamide], the equilibrium dissociation constant (Kd) fell in the range of 100 to 1000 nM.
As for `CN(C)[C@H]1CC[C@H](Nc2nccc(-c3cnccc3Oc3ccc(NC(=O)c4ccccc4Cl)cc3F)n2)CC1` [Compound 76, N-[4-[[3-[2-[(1r,4r)(4-(N,N-Dimethylamino)cyclohexyl)amino]pyrimidin-4-yl]-4-pyridyl]oxy]-3-fluorophenyl] 2-chlorobenzamide], the equilibrium dissociation constant (Kd) lay within 100 to 1000 nM.
Next, `CN1CCC(Nc2nccc(-c3cnccc3Oc3ccc(NS(=O)(=O)c4ccccc4Cl)cc3F)n2)CC1` [Compound 77, N-[3-Fluoro-4-[[3-[2-[[N-methylpiperid-4-yl]amino]pyrimidin-4-yl]-4-pyridyl]oxy]phenyl] 2-chlorobenzenesulfonamide]: 11 to 100 nM.
For the molecule `CN(C)[C@H]1CC[C@H](Nc2nccc(-c3cnccc3Oc3ccc(NS(=O)(=O)c4ccccc4Cl)cc3F)n2)CC1` [Compound 78, N-[4-[[3-[2-[(1r,4r)(4-(N,N-Dimethylamino)cyclohexyl)amino]pyrimidin-4-yl]-4-pyridyl]oxy]-3-fluorophenyl] 2-chlorobenzenesulfonamide], the Kd was 11 to 100 nM.
Turning to `N[C@H]1CC[C@H](Nc2nccc(-c3cnccc3Oc3ccc(NS(=O)(=O)c4ccccc4Cl)c(F)c3)n2)CC1` [Compound 79, N-[4-[[3-[2-[(1r,4r)(4-Aminocyclohexyl)amino]pyrimidin-4-yl]-4-pyridyl]oxy]-2-fluorophenyl] 2-chlorobenzenesulfonamide], the Kd was at most 10 nM.
Next, `N[C@H]1CC[C@H](Nc2nccc(-c3cnccc3Oc3ccc(NS(=O)(=O)c4ccc(CO)cc4F)cc3F)n2)CC1` [Compound 81]: 100 to 1000 nM.
